What was measured:
Mammalian Cells = test: Ultrasound-mediated intracellular calcein delivery and cell viability (flow cytometry); type: cell-based; details: calcein released from supramolecular complexes, with contrast agent
Description: (§1) Ultrasound. Ultrasonic energy is produced using an immersible, focused, piezoceramic transducer. In this experimental system, two different matching resistance networks are necessary, allowing production of sound at 1.0 MHz and 3.0 MHz, similar to a method known in the art (Guzmán et al., 2001a, 2001b, 2002, and 2003; and Schlicher et al., 2006). A sinusoidal waveform is produced by, for example, programmable waveform generators (Stanford Research Instruments, Sunnyvale, Calif.) used in conjunction to control pulse length, frequency, and peak-to-peak voltage. The sinusoidal waveform is amplified by an RF broadband power amplifier (Electronic Navigation Industries, Rochester, N.Y.) before passing through a matching network and controlling the response of the transducer. The transducer is housed in a polycarbonate tank (FIG. 12 [601]) 34.5×32×40 cm; containing approximately 34 liters of deionized, distilled, and partially degassed water at room temperature (i.e., 22° C. to 23° C.). A thick acoustic absorber is mounted opposite the transducer to minimize standing-wave formation (not illustrated). A three-axis micropositioning system (10 μm resolution; Velmex, Bloomfield, N.Y.) is mounted on top of the tank to position samples and a hydrophone at desired locations in the tank. A PVDF membrane hydrophone (NTR Systems, Seattle, Wash.) is used to measure spatial-peak-temporal-peak negative pressure and to map and calibrate the acoustic field produced by the transducer versus the peak-to-peak voltage signal provided by a function generator.
Preparation of Nanocarriers (Supramolecular Complexes) and Samples. Before Ultrasound exposure, supramolecular complexes are prepared encapsulating calcein (i.e., 15 μM initial solution) by using a procedure of Examples 1 and 2. Samples are prepared at a cell concentration of 10^6 cells/ml, supramolecular complexes containing calcein, and the ultrasound contrast agent Optison® at concentrations of 0.30% v/v (˜1.6×10^6 bubble/ml), 1.8% v/v (˜1.1×10^7 bubble/ml), and 15.0% v/v (˜9.3×10^7 bubble/ml). Optison® is an ultrasound contrast agent, a suspension of perfluorcarbon gas bubbles stabilized with denatured human albumin that is used to serve primarily as nuclei to promote acoustic cavitation activity in sonicated samples. The product name “Optison®” may hereafter be referred to as “contrast agent” or “ultrasound contrast agent.”
Before every experiment, the desired placement of the supramolecular complex and cell samples in the acoustic field is found using the PVDF membrane hydrophone (FIG. 12 [604]). This location is approximately 1 cm and 0.5 cm out of the ultrasound's focus toward the transducer (601) (for 1.1 MHz and 3.1 MHz, respectively). The acoustic pressure is calibrated versus the peak-to-peak voltage of the signal created by the function generator, using the PVDF membrane hydrophone (604) at the desired location. These out-of-focus locations have a broader acoustic beam than at the focus, approximately 10.4-mm and 2.4-mm wide at half-amplitude (i.e., −6 dB) for 1.1 MHz and 3.1 MHz, respectively. […]
Samples are placed within chambers (605) constructed from a cylindrical bulb of polyethylene with an approximate dimension of 1.4 cm in height and 0.6 cm in diameter. […] A metal rod (606) is immediately inserted into the open end of the sample chamber and then attached to the three-axis positioning system (603), placing the sample in the desired location as determined by the hydrophone (604). […]

[1] = tested on: Henrietta Lacks (HeLa) cells; test: Ultrasound-mediated intracellular calcein delivery and cell viability in HeLa cells (flow cytometry); type: cell-based; details: HeLa cells compared with AoSMC cells; 1.1 MHz and 3.1 MHz; FIGS. 14A-14D
Description: as §1, with “A PVDF membrane hydrophone (NTR Systems, Seattle, Wash.) is used to measure spatial-peak-temporal-peak negative pressure and to map and calibrate the acoustic field produced by the transducer versus the peak-to-peak voltage signal provided by a function generator.” left out

`O=C(O)CN(CC(=O)O)Cc1cc2c(cc1O)Oc1cc(O)c(CN(CC(=O)O)CC(=O)O)cc1C21OC(=O)c2ccccc21` [calcein] was tested, and the calcein uptake (Mammalian Cells; mild ultrasound conditions) was “low levels”, the cell death (Mammalian Cells; mild ultrasound conditions) was “almost no cell death” and the “calcein uptake (fraction of cells)” value (Mammalian Cells; moderate ultrasound conditions) was “one-third”. The cell death (Mammalian Cells; moderate ultrasound conditions) was “some cell death”, the cell death (Mammalian Cells; strong ultrasound conditions) was “kill almost all insonated cells” and the cell death [1] was “lower levels of death”. For the same molecule, the uptake [1] was “greater uptake”.
